Results reported in patent publication US9701662B2, “Herbicidal compounds” (Syngenta Participations AG, priority 2014, dated 2017).

What was measured:
Type in all cases: in vivo
Setaria faberi (SETFA) [1] = experiment: Pre-emergence glasshouse herbicide test; settings: pre-emergence (sprayed after one day cultivation), 1000 g/h, evaluated after 13 days, five point scale
Protocol: (§1) Seeds of a variety of test species are sown in standard soil in pots (Lolium perenne (LOLPE), Solanum nigrum (SOLNI), Amaranthus retoflexus (AMARE), Setaria faberi (SETFA), Echinochloa crus-galli (ECHCG), Ipomoea hederacea (IPOHE)). After cultivation for one day (pre-emergence) or after 8 days cultivation (post-emergence) under controlled conditions in a glasshouse (at 24/16° C., day/night; 14 hours light; 65% humidity), the plants are sprayed with an aqueous spray solution derived from the formulation of the technical active ingredient in acetone/water (50:50) solution containing 0.5% Tween 20 (polyoxyethelyene sorbitan monolaurate, CAS RN 9005-64-5). Compounds are applied at 1000 g/h. The test plants are then grown in a glasshouse under controlled conditions in a glasshouse (at 24/16° C., day/night; 14 hours light; 65% humidity) and watered twice daily. After 13 days for pre and post-emergence, the test is evaluated for the percentage damage caused to the plant. The biological activities are shown in the following table on a five point scale (5=80-100%; 4=60-79%; 3=40-59%; 2=20-39%; 1=0-19%).

Lolium perenne (LOLPE) [2] = experiment: Pre-emergence glasshouse herbicide test; settings: pre-emergence (sprayed after one day cultivation), 1000 g/h, evaluated after 13 days, five point scale
Protocol: as §1

Solanum nigrum (SOLNI) [3] = experiment: Pre-emergence glasshouse herbicide test; settings: pre-emergence (sprayed after one day cultivation), 1000 g/h, evaluated after 13 days, five point scale
Protocol: as §1

[4] = test system: Ipomoea hederacea (IPOHE); experiment: Pre-emergence glasshouse herbicide test; settings: pre-emergence (sprayed after one day cultivation), 1000 g/h, evaluated after 13 days, five point scale
Protocol: as §1

[5] = test system: Echinochloa crus-galli (ECHCG); experiment: Pre-emergence glasshouse herbicide test; settings: pre-emergence (sprayed after one day cultivation), 1000 g/h, evaluated after 13 days, five point scale
Protocol: as §1

[6] = test system: Amaranthus retoflexus (AMARE); experiment: Pre-emergence glasshouse herbicide test; settings: pre-emergence (sprayed after one day cultivation), 1000 g/h, evaluated after 13 days, five point scale
Protocol: as §1

Setaria faberi (SETFA) [7] = experiment: Post-emergence glasshouse herbicide test; settings: post-emergence (sprayed after 8 days cultivation), 1000 g/h, evaluated after 13 days, five point scale
Protocol: as §1

Lolium perenne (LOLPE) [8] = experiment: Post-emergence glasshouse herbicide test; settings: post-emergence (sprayed after 8 days cultivation), 1000 g/h, evaluated after 13 days, five point scale
Protocol: as §1

Solanum nigrum (SOLNI) [9] = experiment: Post-emergence glasshouse herbicide test; settings: post-emergence (sprayed after 8 days cultivation), 1000 g/h, evaluated after 13 days, five point scale
Protocol: as §1

[10] = test system: Ipomoea hederacea (IPOHE); experiment: Post-emergence glasshouse herbicide test; settings: post-emergence (sprayed after 8 days cultivation), 1000 g/h, evaluated after 13 days, five point scale
Protocol: as §1

[11] = test system: Echinochloa crus-galli (ECHCG); experiment: Post-emergence glasshouse herbicide test; settings: post-emergence (sprayed after 8 days cultivation), 1000 g/h, evaluated after 13 days, five point scale
Protocol: as §1

[12] = test system: Amaranthus retoflexus (AMARE); experiment: Post-emergence glasshouse herbicide test; settings: post-emergence (sprayed after 8 days cultivation), 1000 g/h, evaluated after 13 days, five point scale
Protocol: as §1

Row | SMILES | percentage damage caused to the plant, SETFA, PRE Application (Setaria faberi (SETFA) [1]) | percentage damage caused to the plant, LOLPE, PRE Application (Lolium perenne (LOLPE) [2]) | percentage damage caused to the plant, SOLNI, PRE Application (Solanum nigrum (SOLNI) [3]) | percentage damage caused to the plant, IPOHE, PRE Application [4] | percentage damage caused to the plant, ECHCG, PRE Application [5] | percentage damage caused to the plant, AMARE, PRE Application [6] | percentage damage caused to the plant, SETFA, POST Application (Setaria faberi (SETFA) [7]) | percentage damage caused to the plant, LOLPE, POST Application (Lolium perenne (LOLPE) [8]) | percentage damage caused to the plant, SOLNI, POST Application (Solanum nigrum (SOLNI) [9]) | percentage damage caused to the plant, IPOHE, POST Application [10] | percentage damage caused to the plant, ECHCG, POST Application [11] | percentage damage caused to the plant, AMARE, POST Application [12]
1 | Cc1c(Cl)c(C(=O)Nc2nnnn2C)nn(C)c1=O [Compound 1.007] | 5 (5=80-100%) | 5 (5=80-100%) | 5 (5=80-100%) | 5 (5=80-100%) | 5 (5=80-100%) | 5 (5=80-100%) | 5 (5=80-100%) | 5 (5=80-100%) | 5 (5=80-100%) | 5 (5=80-100%) | 5 (5=80-100%) | 5 (5=80-100%)
2 | CCCCNc1c(C(=O)Nc2nnnn2C)nn(C)c(=O)c1C [Compound 1.008] | 1 (1=0-19%) | 1 (1=0-19%) | 2 (2=20-39%) | 2 (2=20-39%) | 1 (1=0-19%) | 4 (4=60-79%) | 1 (1=0-19%) | 1 (1=0-19%) | 5 (5=80-100%) | 2 (2=20-39%) | 1 (1=0-19%) | 5 (5=80-100%)
3 | CCOc1c(C(=O)Nc2nnnn2C)nn(C)c(=O)c1C [Compound 1.009] | 3 (3=40-59%) | 3 (3=40-59%) | 5 (5=80-100%) | 5 (5=80-100%) | 4 (4=60-79%) | 5 (5=80-100%) | 5 (5=80-100%) | 4 (4=60-79%) | 5 (5=80-100%) | 5 (5=80-100%) | 5 (5=80-100%) | 5 (5=80-100%)
4 | Cn1nnnc1NC(=O)c1nn(C)c(=O)c(-c2ccccc2)c1Cl [Compound 1.010] | 5 (5=80-100%) | 5 (5=80-100%) | 5 (5=80-100%) | 1 (1=0-19%) | 5 (5=80-100%) | 5 (5=80-100%) | 5 (5=80-100%) | 4 (4=60-79%) | 5 (5=80-100%) | 4 (4=60-79%) | 5 (5=80-100%) | 5 (5=80-100%)
5 | Cn1nnnc1NC(=O)c1nn(C)c(=O)c(-c2ccc(Cl)cc2Cl)c1Cl [Compound 1.011] | 5 (5=80-100%) | 5 (5=80-100%) | 5 (5=80-100%) | 3 (3=40-59%) | 5 (5=80-100%) | 5 (5=80-100%) | 5 (5=80-100%) | 5 (5=80-100%) | 5 (5=80-100%) | 4 (4=60-79%) | 5 (5=80-100%) | 3 (3=40-59%)
6 | Cn1nnnc1NC(=O)c1nn(C)c(=O)c(-c2cccc(Cl)c2)c1Cl [Compound 1.012] | 5 (5=80-100%) | 5 (5=80-100%) | 5 (5=80-100%) | 4 (4=60-79%) | 5 (5=80-100%) | 5 (5=80-100%) | 4 (4=60-79%) | 5 (5=80-100%) | 5 (5=80-100%) | 3 (3=40-59%) | 5 (5=80-100%) | 5 (5=80-100%)
7 | Cn1nnnc1NC(=O)c1nn(C)c(=O)c(-c2ccc(Cl)cc2)c1Cl [Compound 1.013] | 5 (5=80-100%) | 5 (5=80-100%) | 5 (5=80-100%) | 2 (2=20-39%) | 5 (5=80-100%) | 5 (5=80-100%) | 3 (3=40-59%) | 5 (5=80-100%) | 5 (5=80-100%) | 2 (2=20-39%) | 5 (5=80-100%) | 3 (3=40-59%)
8 | Cc1ccc(-c2c(Cl)c(C(=O)Nc3nnnn3C)nn(C)c2=O)cc1 [Compound 1.015] | 5 (5=80-100%) | 5 (5=80-100%) | 5 (5=80-100%) | 2 (2=20-39%) | 5 (5=80-100%) | 5 (5=80-100%) | 5 (5=80-100%) | 5 (5=80-100%) | 5 (5=80-100%) | 3 (3=40-59%) | 5 (5=80-100%) | 5 (5=80-100%)
9 | COc1ccc(-c2c(Cl)c(C(=O)Nc3nnnn3C)nn(C)c2=O)cc1 [Compound 1.016] | 5 (5=80-100%) | 5 (5=80-100%) | 5 (5=80-100%) | 1 (1=0-19%) | 5 (5=80-100%) | 5 (5=80-100%) | 5 (5=80-100%) | 5 (5=80-100%) | 5 (5=80-100%) | 4 (4=60-79%) | 5 (5=80-100%) | 5 (5=80-100%)
